In the kinase profiling compilation of Christmann-Franck et al. (2016):

Legend:
SRPK1 (human) = SRPK1 (human) (UniProt Q96SB4); test: IMAP-FP
PLK2 (human) = PLK2 (human) (UniProt Q9NYY3); test: IMAP-FP
EIF2AK3 (human) = EIF2AK3 (human) (UniProt Q9NZJ5); test: IMAP-FP
EIF2AK2 (human) = EIF2AK2 (human) (UniProt P19525); test: IMAP-FP
MAP2K6 (human) = MAP2K6 (human) (UniProt P52564); test: ELISA
MAP3K3 (human) = MAP3K3 (human) (UniProt Q99759); test: ELISA
MAP3K8 (human) = MAP3K8 (human) (UniProt P41279); test: ELISA
BMPR1A (human) = BMPR1A (human) (UniProt P36894); test: ELISA
MAP3K12 (human) = MAP3K12 (human) (UniProt Q12852); test: ELISA
MAP3K9 (human) = MAP3K9 (human) (UniProt P80192); test: ELISA
MAP2K4 (human) = MAP2K4 (human) (UniProt P45985); test: ELISA
WEE1 (human) = WEE1 (human) (UniProt P30291); test: ELISA
MAP2K1 (human) = MAP2K1 (human) (UniProt Q02750); test: ELISA
RAF1 (human) = RAF1 (human) (UniProt P04049); test: ELISA
MAP3K10 (human) = MAP3K10 (human) (UniProt Q02779); test: ELISA
MAP3K5 (human) = MAP3K5 (human) (UniProt Q99683); test: ELISA
MAP3K4 (human) = MAP3K4 (human) (UniProt Q9Y6R4); test: ELISA
MAP2K2 (human) = MAP2K2 (human) (UniProt P36507); test: ELISA
MAP2K5 (human) = MAP2K5 (human) (UniProt Q13163); test: ELISA
BRAF (human) = BRAF (human) (UniProt P15056); test: ELISA
STK11 (human) = STK11 (human) (UniProt Q15831); test: ELISA
MAP3K2 (human) = MAP3K2 (human) (UniProt Q9Y2U5); test: ELISA
MOS (human) = MOS (human) (UniProt P00540); test: ELISA
MAP2K7 (human) = MAP2K7 (human) (UniProt O14733); test: ELISA
MAP3K1 (human) = MAP3K1 (human) (UniProt Q13233); test: ELISA
MAP2K3 (human) = MAP2K3 (human) (UniProt P46734); test: ELISA
MAP3K11 (human) = MAP3K11 (human) (UniProt Q16584); test: ELISA
PLK4 (human) = PLK4 (human) (UniProt O00444); test: ELISA
LIMK1 (human) = LIMK1 (human) (UniProt P53667); test: ELISA
TTK (human) = TTK (human) (UniProt P33981); test: ELISA
MAPK8 (human) = MAPK8 (human) (UniProt P45983); test: Caliper, Mobility shift assay off-chip
AKT3 (human) = AKT3 (human) (UniProt Q9Y243); test: Caliper, Mobility shift assay off-chip
CSNK1G3 (human) = CSNK1G3 (human) (UniProt Q9Y6M4); test: Caliper, Mobility shift assay off-chip
FLT3 (human) = FLT3 (human) (UniProt P36888); test: Caliper, Mobility shift assay off-chip; conditions: compound 0.02 µM
PLK1 (human) = PLK1 (human) (UniProt P53350); test: Caliper, Mobility shift assay off-chip

Chain of WEE1 (human) (P30291 whole entry, looked up): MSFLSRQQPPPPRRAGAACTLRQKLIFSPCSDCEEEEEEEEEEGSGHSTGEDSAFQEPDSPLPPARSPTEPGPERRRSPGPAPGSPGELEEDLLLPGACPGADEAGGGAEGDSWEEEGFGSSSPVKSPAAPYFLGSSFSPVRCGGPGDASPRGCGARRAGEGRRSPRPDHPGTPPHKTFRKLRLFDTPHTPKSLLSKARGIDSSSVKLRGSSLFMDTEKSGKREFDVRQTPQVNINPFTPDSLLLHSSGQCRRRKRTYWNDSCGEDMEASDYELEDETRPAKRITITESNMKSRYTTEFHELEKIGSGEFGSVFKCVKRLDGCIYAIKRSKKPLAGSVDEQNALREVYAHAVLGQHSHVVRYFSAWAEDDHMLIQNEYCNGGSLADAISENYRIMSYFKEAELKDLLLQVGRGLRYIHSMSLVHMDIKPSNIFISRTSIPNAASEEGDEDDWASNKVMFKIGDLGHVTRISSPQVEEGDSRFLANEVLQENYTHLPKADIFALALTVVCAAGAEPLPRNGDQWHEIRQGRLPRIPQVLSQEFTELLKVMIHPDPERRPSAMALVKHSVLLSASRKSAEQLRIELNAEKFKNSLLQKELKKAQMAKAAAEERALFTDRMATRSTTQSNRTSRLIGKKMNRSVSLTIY
Chain of MAP2K5 (human) (Q13163 whole entry, looked up): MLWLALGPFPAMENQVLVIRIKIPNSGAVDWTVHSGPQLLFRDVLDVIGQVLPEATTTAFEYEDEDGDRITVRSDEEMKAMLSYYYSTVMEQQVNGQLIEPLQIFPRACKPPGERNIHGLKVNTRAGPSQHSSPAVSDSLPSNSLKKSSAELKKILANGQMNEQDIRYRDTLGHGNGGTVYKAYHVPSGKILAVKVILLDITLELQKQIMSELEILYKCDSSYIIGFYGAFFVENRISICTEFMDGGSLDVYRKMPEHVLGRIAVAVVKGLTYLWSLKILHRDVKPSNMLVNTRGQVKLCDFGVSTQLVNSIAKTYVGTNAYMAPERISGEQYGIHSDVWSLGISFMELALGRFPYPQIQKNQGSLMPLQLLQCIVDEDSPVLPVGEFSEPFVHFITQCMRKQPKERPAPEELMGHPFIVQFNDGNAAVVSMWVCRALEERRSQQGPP
Chain of PLK4 (human) (O00444 whole entry, looked up): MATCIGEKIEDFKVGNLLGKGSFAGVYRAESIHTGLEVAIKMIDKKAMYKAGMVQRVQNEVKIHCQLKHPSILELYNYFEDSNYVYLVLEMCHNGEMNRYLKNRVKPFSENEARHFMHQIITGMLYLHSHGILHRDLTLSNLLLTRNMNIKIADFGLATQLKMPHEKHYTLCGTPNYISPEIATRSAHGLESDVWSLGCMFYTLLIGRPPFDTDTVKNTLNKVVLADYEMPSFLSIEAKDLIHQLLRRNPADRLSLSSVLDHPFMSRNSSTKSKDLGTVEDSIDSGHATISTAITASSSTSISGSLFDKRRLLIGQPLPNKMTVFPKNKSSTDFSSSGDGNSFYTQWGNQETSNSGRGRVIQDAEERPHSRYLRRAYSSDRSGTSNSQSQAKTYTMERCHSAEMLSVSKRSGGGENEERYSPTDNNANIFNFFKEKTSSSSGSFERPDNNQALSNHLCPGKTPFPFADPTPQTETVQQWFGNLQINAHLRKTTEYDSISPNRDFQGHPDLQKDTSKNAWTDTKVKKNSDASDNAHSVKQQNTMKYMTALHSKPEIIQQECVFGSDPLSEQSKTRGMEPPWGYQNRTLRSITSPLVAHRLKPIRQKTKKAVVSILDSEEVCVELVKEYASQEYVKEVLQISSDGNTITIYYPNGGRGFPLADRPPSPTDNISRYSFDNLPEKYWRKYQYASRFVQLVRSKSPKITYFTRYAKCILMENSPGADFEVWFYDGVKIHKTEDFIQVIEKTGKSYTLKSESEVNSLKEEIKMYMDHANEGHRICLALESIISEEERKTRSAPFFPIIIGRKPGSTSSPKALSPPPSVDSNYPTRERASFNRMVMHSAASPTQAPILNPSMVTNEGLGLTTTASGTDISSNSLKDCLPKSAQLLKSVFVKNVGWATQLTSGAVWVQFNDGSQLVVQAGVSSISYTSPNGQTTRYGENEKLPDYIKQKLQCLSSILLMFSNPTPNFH
Chain of EIF2AK3 (human) (Q9NZJ5 whole entry, looked up): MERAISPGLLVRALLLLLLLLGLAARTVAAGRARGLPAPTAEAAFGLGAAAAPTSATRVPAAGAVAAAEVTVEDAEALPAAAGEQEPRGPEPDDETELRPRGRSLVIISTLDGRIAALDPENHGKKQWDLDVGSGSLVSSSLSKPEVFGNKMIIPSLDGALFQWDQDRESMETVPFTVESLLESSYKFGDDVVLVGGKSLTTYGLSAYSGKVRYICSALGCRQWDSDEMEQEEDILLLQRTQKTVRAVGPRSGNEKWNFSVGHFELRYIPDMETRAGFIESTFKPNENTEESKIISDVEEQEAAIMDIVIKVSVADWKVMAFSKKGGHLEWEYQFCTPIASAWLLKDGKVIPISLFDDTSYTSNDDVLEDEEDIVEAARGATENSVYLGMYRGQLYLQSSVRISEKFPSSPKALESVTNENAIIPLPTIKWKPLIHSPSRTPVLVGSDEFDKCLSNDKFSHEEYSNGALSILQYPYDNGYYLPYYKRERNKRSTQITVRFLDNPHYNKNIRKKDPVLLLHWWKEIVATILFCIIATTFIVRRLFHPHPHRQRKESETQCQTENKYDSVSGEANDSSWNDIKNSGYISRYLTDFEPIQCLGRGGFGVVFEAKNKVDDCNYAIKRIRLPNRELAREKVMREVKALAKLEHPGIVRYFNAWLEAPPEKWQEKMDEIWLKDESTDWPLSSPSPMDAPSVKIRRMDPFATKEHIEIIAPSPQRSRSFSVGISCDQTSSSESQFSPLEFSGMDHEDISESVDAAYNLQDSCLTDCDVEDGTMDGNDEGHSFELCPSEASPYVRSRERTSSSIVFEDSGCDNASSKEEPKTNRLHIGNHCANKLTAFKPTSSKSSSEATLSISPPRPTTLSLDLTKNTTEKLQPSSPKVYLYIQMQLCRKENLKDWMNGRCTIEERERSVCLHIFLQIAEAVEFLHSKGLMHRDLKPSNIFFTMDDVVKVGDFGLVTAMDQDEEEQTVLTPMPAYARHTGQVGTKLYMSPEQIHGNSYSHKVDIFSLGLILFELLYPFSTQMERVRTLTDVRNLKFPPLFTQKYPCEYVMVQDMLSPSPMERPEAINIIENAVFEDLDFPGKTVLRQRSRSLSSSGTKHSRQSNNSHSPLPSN
Chain of MAP3K4 (human) (Q9Y6R4 whole entry, looked up): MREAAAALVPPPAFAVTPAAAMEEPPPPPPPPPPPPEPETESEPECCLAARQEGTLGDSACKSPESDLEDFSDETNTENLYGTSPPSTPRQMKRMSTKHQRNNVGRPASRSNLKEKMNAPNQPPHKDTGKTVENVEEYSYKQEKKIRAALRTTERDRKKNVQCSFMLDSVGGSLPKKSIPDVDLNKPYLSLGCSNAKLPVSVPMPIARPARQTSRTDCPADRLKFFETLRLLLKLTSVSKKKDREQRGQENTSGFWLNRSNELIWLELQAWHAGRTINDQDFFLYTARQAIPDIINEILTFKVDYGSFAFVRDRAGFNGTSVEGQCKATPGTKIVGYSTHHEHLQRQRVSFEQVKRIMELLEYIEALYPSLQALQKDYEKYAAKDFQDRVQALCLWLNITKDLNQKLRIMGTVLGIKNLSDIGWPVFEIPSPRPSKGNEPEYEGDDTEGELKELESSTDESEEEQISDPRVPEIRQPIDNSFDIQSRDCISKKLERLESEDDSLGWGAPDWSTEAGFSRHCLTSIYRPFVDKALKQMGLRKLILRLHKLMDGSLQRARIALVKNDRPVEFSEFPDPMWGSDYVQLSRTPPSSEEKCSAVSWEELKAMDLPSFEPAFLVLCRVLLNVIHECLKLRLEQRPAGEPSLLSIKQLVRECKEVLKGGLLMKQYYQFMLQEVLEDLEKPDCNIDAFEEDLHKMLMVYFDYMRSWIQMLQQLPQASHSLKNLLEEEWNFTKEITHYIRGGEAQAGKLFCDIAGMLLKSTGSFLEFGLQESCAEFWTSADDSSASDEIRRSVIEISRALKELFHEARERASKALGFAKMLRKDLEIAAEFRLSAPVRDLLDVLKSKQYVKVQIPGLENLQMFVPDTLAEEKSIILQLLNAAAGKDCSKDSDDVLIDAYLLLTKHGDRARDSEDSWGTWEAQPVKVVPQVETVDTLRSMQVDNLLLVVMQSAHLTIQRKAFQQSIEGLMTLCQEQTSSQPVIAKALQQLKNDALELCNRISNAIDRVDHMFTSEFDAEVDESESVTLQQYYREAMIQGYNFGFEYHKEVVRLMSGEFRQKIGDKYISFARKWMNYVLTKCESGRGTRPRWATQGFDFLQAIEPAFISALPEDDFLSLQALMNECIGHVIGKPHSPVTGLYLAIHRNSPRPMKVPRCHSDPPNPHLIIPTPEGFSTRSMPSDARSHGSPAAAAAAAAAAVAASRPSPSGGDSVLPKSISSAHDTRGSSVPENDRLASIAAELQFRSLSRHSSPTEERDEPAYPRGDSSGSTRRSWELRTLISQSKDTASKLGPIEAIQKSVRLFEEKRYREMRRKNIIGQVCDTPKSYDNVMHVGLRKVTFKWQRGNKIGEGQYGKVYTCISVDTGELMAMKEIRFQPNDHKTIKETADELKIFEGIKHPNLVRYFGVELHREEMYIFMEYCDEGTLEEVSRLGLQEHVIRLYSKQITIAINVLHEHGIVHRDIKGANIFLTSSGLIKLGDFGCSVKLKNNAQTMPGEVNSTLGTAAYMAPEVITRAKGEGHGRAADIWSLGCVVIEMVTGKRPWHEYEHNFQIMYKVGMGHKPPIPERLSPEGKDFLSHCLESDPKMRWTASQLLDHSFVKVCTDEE

CNC(=O)c1ccccc1Sc1ccc2c(/C=C/c3ccccn3)n[nH]c2c1
inhibition (SRPK1 (human); compound 0.001 µM): -6.9% | inhibition (SRPK1 (human); compound 0.02 µM): -5.3% | inhibition (PLK2 (human); compound 0.001 µM): -3% | inhibition (PLK2 (human); compound 0.02 µM): 1.7% | inhibition (EIF2AK3 (human); compound 0.001 µM): -16.9% | inhibition (EIF2AK3 (human); compound 0.02 µM): -10.8% | inhibition (EIF2AK2 (human); compound 0.001 µM): -26.3% | inhibition (EIF2AK2 (human); compound 0.02 µM): -20.8% | inhibition (MAP2K6 (human); compound 0.001 µM): 3.2% | inhibition (MAP2K6 (human); compound 0.02 µM): 2.3% | inhibition (MAP3K3 (human); compound 0.001 µM): 6.6% | inhibition (MAP3K3 (human); compound 0.02 µM): 0.5% | inhibition (MAP3K8 (human); compound 0.001 µM): -5.7% | inhibition (MAP3K8 (human); compound 0.02 µM): -0.7% | inhibition (BMPR1A (human); compound 0.001 µM): -0.4% | inhibition (BMPR1A (human); compound 0.02 µM): 1.1% | inhibition (MAP3K12 (human); compound 0.001 µM): 6.6% | inhibition (MAP3K12 (human); compound 0.02 µM): 4.3% | inhibition (MAP3K9 (human); compound 0.001 µM): 1.1% | inhibition (MAP3K9 (human); compound 0.02 µM): 0.1% | inhibition (MAP2K4 (human); compound 0.001 µM): -0.4% | inhibition (MAP2K4 (human); compound 0.02 µM): -5.7% | inhibition (WEE1 (human); compound 0.001 µM): -2.1% | inhibition (WEE1 (human); compound 0.02 µM): 1.5% | inhibition (MAP2K1 (human); compound 0.001 µM): 4.3% | inhibition (MAP2K1 (human); compound 0.02 µM): -1.3% | inhibition (RAF1 (human); compound 0.001 µM): 0.9% | inhibition (RAF1 (human); compound 0.02 µM): -3% | inhibition (MAP3K10 (human); compound 0.001 µM): 4.4% | inhibition (MAP3K10 (human); compound 0.02 µM): 2.7% | inhibition (MAP3K5 (human); compound 0.001 µM): -2% | inhibition (MAP3K5 (human); compound 0.02 µM): -2.8% | inhibition (MAP3K4 (human); compound 0.001 µM): -7.9% | inhibition (MAP3K4 (human); compound 0.02 µM): -1.7% | inhibition (MAP2K2 (human); compound 0.001 µM): -7.9% | inhibition (MAP2K2 (human); compound 0.02 µM): 0.1% | inhibition (MAP2K5 (human); compound 0.001 µM): -15.6% | inhibition (MAP2K5 (human); compound 0.02 µM): -11.8% | inhibition (BRAF (human); compound 0.001 µM): -1.8% | inhibition (BRAF (human); compound 0.02 µM): -4.5% | inhibition (STK11 (human); compound 0.001 µM): 1.9% | inhibition (STK11 (human); compound 0.02 µM): 0.2% | inhibition (MAP3K2 (human); compound 0.001 µM): -0.4% | inhibition (MAP3K2 (human); compound 0.02 µM): 1.9% | inhibition (MOS (human); compound 0.001 µM): -7.5% | inhibition (MOS (human); compound 0.02 µM): -15.4% | inhibition (MAP2K7 (human); compound 0.001 µM): -1.2% | inhibition (MAP2K7 (human); compound 0.02 µM): -3.4% | inhibition (MAP3K1 (human); compound 0.001 µM): -3.7% | inhibition (MAP3K1 (human); compound 0.02 µM): -3.5% | inhibition (MAP2K3 (human); compound 0.001 µM): -2.7% | inhibition (MAP2K3 (human); compound 0.02 µM): -2.2% | inhibition (MAP3K11 (human); compound 0.001 µM): -5.9% | inhibition (MAP3K11 (human); compound 0.02 µM): -7.1% | inhibition (PLK4 (human); compound 0.001 µM): 23.3% | inhibition (PLK4 (human); compound 0.02 µM): 48.9% | inhibition (LIMK1 (human); compound 0.001 µM): 1.5% | inhibition (LIMK1 (human); compound 0.02 µM): -2.6% | inhibition (TTK (human); compound 0.001 µM): -2.7% | inhibition (TTK (human); compound 0.02 µM): -3.2% | inhibition (MAPK8 (human); compound 0.001 µM): -3.3% | inhibition (MAPK8 (human); compound 0.02 µM): -3.5% | inhibition (AKT3 (human); compound 0.001 µM): -5.4% | inhibition (AKT3 (human); compound 0.02 µM): -5.5% | inhibition (CSNK1G3 (human); compound 0.001 µM): -3.7% | inhibition (CSNK1G3 (human); compound 0.02 µM): -2.5% | inhibition (FLT3 (human)): 14.8% | inhibition (PLK1 (human); compound 0.001 µM): -5% | inhibition (PLK1 (human); compound 0.02 µM): -2.2%
